Reference: ChEMBL document CHEMBL3991601, “The target landscape of clinical kinase drugs” (Science, 2017)
Activity calls are given as the source filed them. For most assays here, no stated cut-off is given here; in the data, actives have a measured Kd and inactives only a lower limit.

Key:
[1] = target: T1, Serine/threonine-protein kinase Chk1 (Homo sapiens, UniProt O14757)
T1 sequence (O14757 whole entry): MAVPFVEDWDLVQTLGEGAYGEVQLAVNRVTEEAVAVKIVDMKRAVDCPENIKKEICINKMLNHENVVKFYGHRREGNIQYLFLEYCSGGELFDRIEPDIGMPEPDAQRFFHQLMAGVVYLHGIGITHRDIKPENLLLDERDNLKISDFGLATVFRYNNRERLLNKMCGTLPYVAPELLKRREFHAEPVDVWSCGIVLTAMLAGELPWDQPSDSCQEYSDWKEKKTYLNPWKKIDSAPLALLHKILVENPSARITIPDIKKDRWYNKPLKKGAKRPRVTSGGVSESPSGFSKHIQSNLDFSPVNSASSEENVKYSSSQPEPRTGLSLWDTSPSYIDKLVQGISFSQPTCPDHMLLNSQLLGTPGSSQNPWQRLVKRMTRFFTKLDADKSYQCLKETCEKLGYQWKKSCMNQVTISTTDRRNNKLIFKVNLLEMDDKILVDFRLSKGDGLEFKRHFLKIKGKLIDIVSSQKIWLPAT

[2] = target: T2, Mitogen-activated protein kinase kinase kinase 6 (Homo sapiens, UniProt O95382)
T2 sequence (O95382 whole entry): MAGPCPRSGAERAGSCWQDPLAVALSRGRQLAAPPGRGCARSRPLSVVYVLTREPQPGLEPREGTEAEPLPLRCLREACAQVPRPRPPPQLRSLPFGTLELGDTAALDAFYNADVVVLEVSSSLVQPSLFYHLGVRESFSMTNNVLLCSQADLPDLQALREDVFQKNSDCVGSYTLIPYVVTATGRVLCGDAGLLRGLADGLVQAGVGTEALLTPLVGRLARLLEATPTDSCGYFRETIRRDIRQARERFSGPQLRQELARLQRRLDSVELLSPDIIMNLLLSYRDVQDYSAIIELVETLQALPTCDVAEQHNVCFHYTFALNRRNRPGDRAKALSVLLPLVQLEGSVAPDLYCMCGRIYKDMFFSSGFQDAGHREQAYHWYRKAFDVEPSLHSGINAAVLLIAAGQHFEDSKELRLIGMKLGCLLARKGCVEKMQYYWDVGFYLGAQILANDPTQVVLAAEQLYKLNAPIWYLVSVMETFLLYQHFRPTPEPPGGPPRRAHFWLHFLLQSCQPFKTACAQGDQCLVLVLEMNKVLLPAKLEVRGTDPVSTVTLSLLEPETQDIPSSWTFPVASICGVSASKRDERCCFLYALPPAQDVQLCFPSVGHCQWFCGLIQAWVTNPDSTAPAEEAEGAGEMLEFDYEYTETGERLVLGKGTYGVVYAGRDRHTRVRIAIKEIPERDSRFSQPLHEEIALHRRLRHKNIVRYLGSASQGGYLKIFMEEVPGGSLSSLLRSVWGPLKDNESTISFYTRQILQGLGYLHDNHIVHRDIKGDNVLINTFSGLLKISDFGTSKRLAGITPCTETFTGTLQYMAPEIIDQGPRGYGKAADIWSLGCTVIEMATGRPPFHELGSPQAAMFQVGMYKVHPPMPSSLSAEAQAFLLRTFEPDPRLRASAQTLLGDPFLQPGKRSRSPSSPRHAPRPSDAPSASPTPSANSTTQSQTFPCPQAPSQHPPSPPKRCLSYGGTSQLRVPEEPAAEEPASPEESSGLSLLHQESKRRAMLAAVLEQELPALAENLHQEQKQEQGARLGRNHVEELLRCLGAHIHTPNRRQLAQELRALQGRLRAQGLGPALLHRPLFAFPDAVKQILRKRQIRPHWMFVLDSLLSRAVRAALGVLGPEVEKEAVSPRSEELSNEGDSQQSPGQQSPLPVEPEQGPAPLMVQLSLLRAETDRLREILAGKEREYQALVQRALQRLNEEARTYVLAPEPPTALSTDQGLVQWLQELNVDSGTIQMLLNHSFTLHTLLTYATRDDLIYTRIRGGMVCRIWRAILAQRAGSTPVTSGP

Ephrin type-B receptor 4 = target: T3, Ephrin type-B receptor 4 (Homo sapiens, UniProt P54760)
T3 sequence (P54760 whole entry): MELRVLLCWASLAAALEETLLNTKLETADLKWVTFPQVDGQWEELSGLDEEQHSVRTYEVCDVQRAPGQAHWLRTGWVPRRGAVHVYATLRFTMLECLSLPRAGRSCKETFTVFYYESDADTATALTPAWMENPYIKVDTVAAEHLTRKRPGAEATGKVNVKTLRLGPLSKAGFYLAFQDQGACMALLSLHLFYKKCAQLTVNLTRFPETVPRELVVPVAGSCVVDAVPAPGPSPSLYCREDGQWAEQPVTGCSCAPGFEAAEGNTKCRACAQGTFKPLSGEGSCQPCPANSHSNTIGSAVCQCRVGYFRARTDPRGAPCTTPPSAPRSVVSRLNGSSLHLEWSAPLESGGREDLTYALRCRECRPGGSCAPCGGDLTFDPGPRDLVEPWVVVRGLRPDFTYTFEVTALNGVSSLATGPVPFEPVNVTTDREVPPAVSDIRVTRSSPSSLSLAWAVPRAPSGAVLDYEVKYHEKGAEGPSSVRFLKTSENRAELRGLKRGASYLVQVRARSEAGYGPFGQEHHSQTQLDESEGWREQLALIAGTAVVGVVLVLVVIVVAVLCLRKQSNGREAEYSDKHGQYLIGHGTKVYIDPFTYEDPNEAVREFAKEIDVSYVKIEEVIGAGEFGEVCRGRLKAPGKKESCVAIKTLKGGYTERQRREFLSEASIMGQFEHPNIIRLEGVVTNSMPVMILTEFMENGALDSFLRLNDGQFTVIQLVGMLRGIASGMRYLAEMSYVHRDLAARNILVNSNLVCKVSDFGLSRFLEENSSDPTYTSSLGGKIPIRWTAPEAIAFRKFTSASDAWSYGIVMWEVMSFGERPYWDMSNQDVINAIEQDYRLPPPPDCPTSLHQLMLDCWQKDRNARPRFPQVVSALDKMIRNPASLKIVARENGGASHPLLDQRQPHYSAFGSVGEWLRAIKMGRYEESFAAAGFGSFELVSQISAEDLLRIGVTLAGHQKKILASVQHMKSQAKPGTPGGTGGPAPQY

Row | Structure (SMILES) | Kd [1] | Kd [2] | Kd (Ephrin type-B receptor 4)
1 | Cc1cc(-c2cc(O)ccc2Cl)cc2nnc(Nc3ccc(OCCN4CCCC4)cc3)nc12 | > 30 µM (inactive) | > 30 µM (inactive) | 0.0009 µM (active)
2 | CCN1CCN(Cc2ccc(-c3cc4c(N[C@H](C)c5ccccc5)ncnc4[nH]3)cc2)CC1 [AEE-788] | > 30 µM (inactive) | > 30 µM (inactive) | 26.4 µM (active)
3 | CO[C@H]1C[C@@H]2CC[C@@H](C)[C@@](O)(O2)C(=O)C(=O)N2CCCC[C@H]2C(=O)O[C@H]([C@H](C)C[C@@H]2CC[C@@H](OCCO)[C@H](OC)C2)CC(=O)[C@H](C)/C=C(\C)[C@@H](O)[C@@H](OC)C(=O)[C@H](C)C[C@H](C)/C=C/C=C/C=C/1C [EVEROLIMUS] | > 30 µM (inactive) | > 30 µM (inactive) | > 30 µM (inactive)
4 | C[C@@H](Nc1cc(F)cc(F)c1)c1cc(C(=O)N(C)C)cc2c(=O)cc(N3CCOCC3)oc12 [AZD-8186] | > 30 µM (inactive) | > 30 µM (inactive) | > 30 µM (inactive)
5 | CN1N=C(N)c2cn([C@@H]3O[C@H](COP(=O)(O)O)[C@@H](O)[C@H]3O)c3ncnc1c23 [TRICIRIBINE PHOSPHATE] | > 30 µM (inactive) | > 30 µM (inactive) | > 30 µM (inactive)
6 | OCCn1cc(-c2cnc3nnn(Cc4ccc5ncccc5c4)c3n2)cn1 [PF-04217903] |  | > 30 µM (inactive) | > 30 µM (inactive)
7 | O=c1sn(-c2cccc3ccccc23)c(=O)n1Cc1ccccc1 [TIDEGLUSIB] | > 30 µM (inactive) | > 30 µM (inactive) | > 30 µM (inactive)
8 | CCc1cnn2c(NCc3ccc[n+]([O-])c3)cc(N3CCCC[C@H]3CCO)nc12 [DINACICLIB] |  | > 30 µM (inactive) | > 30 µM (inactive)
9 | C=CC(=O)N1CCC(Oc2cc3c(Nc4ccc(Cl)c(Cl)c4F)ncnc3cc2OC)CC1 [POZIOTINIB] | > 30 µM (inactive) | > 30 µM (inactive) | 0.34 µM (active)
10 | O=C(Nc1cccc(Cl)c1)Nc1ncc(CCNc2ncnc3ccsc23)s1 [SNS-314] |  | > 30 µM (inactive) | > 30 µM (inactive)
11 | CN1CC[C@@H](c2c(O)cc(O)c3c(=O)cc(-c4ccccc4Cl)oc23)[C@@H]1CO | > 30 µM (inactive) | > 30 µM (inactive) | > 30 µM (inactive)
12 | C1=C/COCc2cc(ccc2OCCN2CCCC2)Nc2nccc(n2)-c2cccc(c2)COC/1 [PACRITINIB] | > 30 µM (inactive) | > 30 µM (inactive) | > 30 µM (inactive)
13 | CN1CCC(COc2cnc(-c3cccc(Cn4nc(-c5cccc(C#N)c5)ccc4=O)c3)nc2)CC1 [TEPOTINIB] |  | > 30 µM (inactive) | > 30 µM (inactive)

The next lines start with the values.

Row | Kd [1] | Kd [2] | Kd (Ephrin type-B receptor 4) | Structure (SMILES)
14 | > 30 µM (inactive) | > 30 µM (inactive) | > 30 µM (inactive) | Cn1ncc(Cl)c1-c1cc(C(=O)N[C@H](CN)Cc2cccc(F)c2)sc1Cl [AFURESERTIB]
15 | > 30 µM (inactive) | > 30 µM (inactive) | > 30 µM (inactive) | COC(=O)N[C@@H](C)CNc1nccc(-c2cn(C(C)C)nc2-c2cc(Cl)cc(NS(C)(=O)=O)c2F)n1 [ENCORAFENIB]
16 | > 30 µM (inactive) | > 30 µM (inactive) | > 30 µM (inactive) | CCCS(=O)(=O)Nc1ccc(F)c(C(=O)c2c[nH]c3ncc(-c4ccc(Cl)cc4)cc23)c1F [VEMURAFENIB]
17 | > 30 µM (inactive) | > 30 µM (inactive) | > 30 µM (inactive) | CC[C@H](Nc1ncnc2[nH]cnc12)c1nc2cccc(F)c2c(=O)n1-c1ccccc1 [IDELALISIB]
18 | > 30 µM (inactive) | > 30 µM (inactive) | > 30 µM (inactive) | CNS(=O)(=O)Nc1nccc(Cc2c(C)c3ccc(Oc4ncccn4)cc3oc2=O)c1F [AVUTOMETINIB]
19 | > 30 µM (inactive) | > 30 µM (inactive) | > 30 µM (inactive) | O=C(O)[C@]1(Cc2cccc(Nc3nccs3)n2)CC[C@@H](Oc2cccc(Cl)c2F)CC1 [MK-5108]
20 | > 30 µM (inactive) | > 30 µM (inactive) | > 30 µM (inactive) | CC(=O)Nc1cccc(-n2c(=O)n(C3CC3)c(=O)c3c(Nc4ccc(I)cc4F)n(C)c(=O)c(C)c32)c1 [TRAMETINIB]
21 | > 30 µM (inactive) | > 30 µM (inactive) | > 30 µM (inactive) | CC(C)Nc1cc(-c2c[nH]c(C(=O)N[C@H](CO)c3cccc(Cl)c3)c2)c(Cl)cn1 [ULIXERTINIB]
22 | > 30 µM (inactive) | > 30 µM (inactive) | > 30 µM (inactive) | Cn1cc(-c2ccc3nnc(C(F)(F)c4ccc5ncccc5c4)n3n2)cn1 [JNJ-38877605]
23 | > 30 µM (inactive) | > 30 µM (inactive) | > 30 µM (inactive) | C[C@@H]1CN(Cc2ccc(F)cc2)[C@@H](C)CN1C(=O)c1cc2c(C(=O)C(=O)N(C)C)cn(C)c2cc1Cl [TALMAPIMOD]
24 | > 30 µM (inactive) | > 30 µM (inactive) | > 30 µM (inactive) | COc1cc(N2CCC(N3CCN(C)CC3)CC2)ccc1Nc1ncnc(Nc2ccccc2S(=O)(=O)C(C)C)n1 [ASP-3026]
25 | > 30 µM (inactive) | > 30 µM (inactive) | > 30 µM (inactive) | CNC(=O)c1ccc(-c2cnc3ncc(Cc4ccc5ncccc5c4)n3n2)cc1F [CAPMATINIB]
26 |  | > 30 µM (inactive) | 4.61 µM (active) | Cc1nc(N)sc1-c1ccnc(Nc2ccc(N3CCOCC3)cc2)n1 [CYC-116]
27 | > 30 µM (inactive) | > 30 µM (inactive) | 0.556 µM (active) | CNC(=O)CN1CCC(Oc2cc3c(Nc4cccc(Cl)c4F)ncnc3cc2OC)CC1 [SAPITINIB]
28 | > 30 µM (inactive) | > 30 µM (inactive) | > 30 µM (inactive) | Cc1ccc(S(=O)(=O)Nc2nc3ccccc3nc2Nc2ccc3nsnc3c2)cc1
29 | > 30 µM (inactive) | 1.57 µM | > 30 µM (inactive) | COc1cc2nccc(Oc3ccc(NC(=O)NC4CC4)c(Cl)c3)c2cc1C(N)=O [LENVATINIB]
30 |  | > 30 µM (inactive) | > 30 µM (inactive) | Cc1cc(Nc2cc(N3CCN(C)CC3)nc(/C=C/c3ccccc3)n2)n[nH]1 [ENMD-2076]
31 | > 30 µM (inactive) | > 30 µM (inactive) |  | COc1cc2nccc(Oc3ccc(NC(=O)Nc4cc(C)on4)c(Cl)c3)c2cc1OC [TIVOZANIB]
